Data taken from publication PMC8126654, “Novel Pan-Pim Kinase Inhibitors With Imidazopyridazine and Thiazolidinedione Structure Exert Potent Antitumor Activities” (Frontiers in Pharmacology, 2021).

Key:
MV-4-11 = assay: Cell cycle analysis, MV-4-11; format: cell-based; details: 24 h (DMSO 52%)
Description: (§1) After treatment, cells were fixed and stained with propidium iodide using the Cell Cycle Phase Determination kit (Cayman Chemical, Ann Arbor, MI, United States) and analyzed by Guava EasyCyteTM Plus System (Merck Millipore).

Pim-1 = molecular target: T1, Pim-1 (Homo sapiens, UniProt P11309); assay: Binding detection based on SPR platform (BIACORE T200); details: 6.5, 13, 25, or 50 µM
T1 construct: purchased Life Technologies; Thermo Fisher Scientific Inc
T1 sequence (P11309 whole entry): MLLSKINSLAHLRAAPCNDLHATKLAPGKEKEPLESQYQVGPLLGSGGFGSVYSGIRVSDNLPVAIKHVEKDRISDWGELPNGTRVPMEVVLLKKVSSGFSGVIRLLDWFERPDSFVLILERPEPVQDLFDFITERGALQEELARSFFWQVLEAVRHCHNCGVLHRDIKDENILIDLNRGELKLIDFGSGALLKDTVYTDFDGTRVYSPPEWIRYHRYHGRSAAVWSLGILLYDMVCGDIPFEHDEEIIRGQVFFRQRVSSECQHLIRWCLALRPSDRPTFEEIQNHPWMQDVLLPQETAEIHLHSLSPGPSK
Protocol: The interactions between test compounds and Pim-1 were detected by surface plasmon resonance platform BIACORE T200 (GE Healthcare Life Sciences, Buckinghamshire, England). Pim-1 was diluted to 20 μg/ml in 10 mM acetate buffer (pH 5.0), and then immobilized as a ligand in the N-hydroxysuccinimide/ethyl 3-(3-dimethylaminopropyl) carbodiimide-pre-activated CM5 sensor chip, following blocking by ethanolamine. Test compounds were diluted at 6.5, 13, 25, or 50 µM in a vehicle of 5% DMSO (v/v) in phosphate buffered saline (PBS). The dilutions were injected as analyte flow liquid phase with PBS containing 5% DMSO (v/v) as running buffer at a constant flow rate of 30 μL/min. A 2-min association time was set. The data were collected by Biacore Control Software. Kinetics and affinity parameters were evaluated with the Langmuir model (1:1) using BIA evaluation software.

HCT116 = assay: Apoptosis assay in HCT116 (Hoechst 33342 nuclear morphology, Cell Death ELISA); format: cell-based
Protocol: For caspase-3/7 activity assay, the Caspase-Glo 3/7 Assay System (Promega, Madison, WI) was used according to the manufacturer’s protocol. […] The Caspase-Glo 3/7 reagent was then added to each well and incubated for 1 h, and caspase-3/7 activity was measured. […] After treatment, cells were stained in 0.5 μg/ml Hoechst 33342 for 30 min. Subsequently, cell morphology was observed and images were captured from random visual fields using fluorescence microscopy (Biozero BZ-8100, Keyence, Osaka, Japan). […] After treatment, DNA fragmentation was detected using the Cell Death Detection ELISA^PLUS (Roche Applied Science, Mannheim, Germany).

PC-3 [1] = assay: Immunoblot analysis of phosphorylation of Pim kinase substrates, PC-3; format: cell-based; details: PC-3, 4 h
Protocol: (§2) Cells were plated overnight and then treated with test compounds for 4 hours. Then, the cells were lyzed in solubilization buffer [10 mM Tris-HCl (pH7.4), 0.1% (w/v) NP-40, 0.1% (w/v) sodium deoxycholate, 0.1% (w/v) SDS, 0.15 M NaCl, 1 mM EDTA, 10 µM aprotinin] with phosphatase inhibitor cocktails (Nakarai Tesque, Kyoto, Japan), and subjected to SDS-PAGE using 15% (w/v) gels under reducing conditions. The separated proteins were electrotransferred to Immobilon transfer membranes (Merck Millipore, Darmstadt, Germany). Then, each membrane was reacted with primary antibodies, which were subsequently complexed with appropriate horseradish peroxidase-conjugated secondary antibodies. Signals were detected using the ECL Western Blotting Detection System (GE Healthcare Life Sciences) and protein expression was quantified with a LAS-3000 Luminescent Image Analyzer (GE Healthcare Life Sciences). The protein bands were quantified using ImageQuant TL software (GE Healthcare Life Sciences).

MKN45 = assay: Immunoblot analysis of phosphorylation of Pim kinase substrates, MKN45; format: cell-based; details: MKN45, 4 h
Protocol: as §2

PC-3 [2] = assay: Cell cycle analysis, PC-3; format: cell-based; details: 24 h (DMSO 41%)
Description: as §1

FLT3 = molecular target: T2, FLT3 (Homo sapiens, UniProt P36888); assay: FLT3 kinase activity assay (FRET-based Z'-LYTE); format: biochemical; details: ATP 500 µM; read-out: IC50 against FLT3 kinase
T2 construct: purchased Life Technologies; Thermo Fisher Scientific Inc
T2 sequence (P36888 27-993): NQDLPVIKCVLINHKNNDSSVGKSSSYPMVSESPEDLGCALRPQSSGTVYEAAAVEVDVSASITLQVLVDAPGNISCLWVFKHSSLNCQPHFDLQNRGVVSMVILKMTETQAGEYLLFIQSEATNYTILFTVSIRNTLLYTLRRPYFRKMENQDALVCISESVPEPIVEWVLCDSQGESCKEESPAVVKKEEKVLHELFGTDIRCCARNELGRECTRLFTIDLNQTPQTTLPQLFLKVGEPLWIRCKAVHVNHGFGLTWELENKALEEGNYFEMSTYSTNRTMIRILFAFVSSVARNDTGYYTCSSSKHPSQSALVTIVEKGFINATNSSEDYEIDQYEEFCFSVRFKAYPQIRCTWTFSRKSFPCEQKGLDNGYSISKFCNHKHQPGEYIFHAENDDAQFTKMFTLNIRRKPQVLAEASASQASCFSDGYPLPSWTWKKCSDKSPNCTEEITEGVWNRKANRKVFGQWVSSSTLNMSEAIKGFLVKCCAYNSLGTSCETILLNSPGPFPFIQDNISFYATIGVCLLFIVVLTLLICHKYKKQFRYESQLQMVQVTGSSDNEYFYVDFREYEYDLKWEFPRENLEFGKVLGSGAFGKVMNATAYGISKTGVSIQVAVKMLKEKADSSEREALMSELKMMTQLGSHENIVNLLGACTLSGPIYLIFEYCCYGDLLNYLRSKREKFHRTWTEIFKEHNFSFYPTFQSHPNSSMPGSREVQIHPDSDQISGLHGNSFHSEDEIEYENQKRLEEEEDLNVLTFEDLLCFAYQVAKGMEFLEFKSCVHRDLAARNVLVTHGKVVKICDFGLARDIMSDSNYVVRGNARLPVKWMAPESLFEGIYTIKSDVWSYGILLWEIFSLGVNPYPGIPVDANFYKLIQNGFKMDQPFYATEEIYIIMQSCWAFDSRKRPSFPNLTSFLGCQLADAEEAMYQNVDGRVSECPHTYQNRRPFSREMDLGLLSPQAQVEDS
Protocol: The inhibition ratios of test compounds for Pim-1, 2 (Life Technologies; Thermo Fisher Scientific Inc., MA, United States), 3 (Merck KgaA), and FLT3 (Life Technologies; Thermo Fisher Scientific Inc., MA, United States) were determined using a modified FRET-based Z′-LYTE kinase assay kit (Invitrogen; Thermo Fisher Scientific Inc.). The Ser/Thr 7 peptide and Tyr-2 peptide were used as substrates for Pim kinases and FLT3, respectively. The reactions were carried out in a 384-well plate with a 10 µL reaction volume per well containing 1 µM substrates in 50 mM HEPES buffer with pH 7.5, 0.01% BRIJ-35, 10 mM MgCl2, 1 mM EGTA, and an appropriate amount of kinases (Pim-1: 0.03 μg/ml, Pim-2: 0.2 μg/ml, Pim-3: 0.2 μg/ml, FLT3: 0.1 μg/ml) with test compounds. The final reaction concentrations of ATP were 400, 5, 100, and 500 µM for Pim-1, 2, 3, and FLT3 respectively. After 1 h incubation, reactions were developed and terminated, and fluorescence ratios were calculated following the manufacturer’s protocol.

Phosphorylation levels of Bad, 4EBP, and p21 (PC-3 [1]): decreased | Phosphorylation levels of Bad, 4EBP, and p21 (MKN45): decreased | IC50 (FLT3): 390 nM
Structure (SMILES): CN1CCN(c2ccc(-c3cnc4ccc(/C=C5\SC(=O)NC5=O)nn34)cc2)CC1 [YPC-21440, (Z)-5-([3-{4-(4-methylpiperazin-1-yl)phenyl}imidazo[1,2-b]pyridazin-6-yl]methylene)thiazolidine-2,4-dione]
Percentage of cells in G1 phase (MV-4-11; MV-4-11, 0.3 µM): 55% | Percentage of cells in G1 phase (MV-4-11; MV-4-11, 1 µM): 77% | Binding to Pim-1 by SPR (Biacore) (Pim-1): bound Pim-1 in a concentration-dependent manner | Chromatin condensation (HCT116; HCT116, 1 µM, 48 h): induced | DNA fragmentation (HCT116; HCT116, ≥ 0.3 µM, 24 h): induced | Percentage of cells in G1 phase (PC-3 [2]; PC-3, 0.3 µM): 55% | Percentage of cells in G1 phase (PC-3 [2]; PC-3, 1 µM): 65%
